Assay: resistivity in solution, crystalline versus amorphous form
Type: physicochemical
Conditions: compared with the amorphous form at an equivalent concentration in solution

With `CCNC(=O)[C@H]1O[C@@H](n2cnc3c(NCC(c4ccccc4)c4ccccc4)nc(C(=O)NCCNC(=O)NC4CCN(c5ccccn5)CC4)nc32)[C@H](O)[C@@H]1O` [crystalline form, 6-[(2,2-diphenylethyl)amino]-9-(N-ethyl-β-D-ribofuranosyluronamide)-N-(2-{N′-[1-(2-pyridyl)-4-piperidyl]ureido}ethyl)-9H-purine-2-carboxamide] the resistivity in solution was “higher resistivity than the amorphous form”.

Reference: patent US20030144243A1, “Combination of a crystalline drug form and atiotropium salt” (priority 2001, published 2003)
